What is called Cmax is the maximum level reached in the sampled fluid or tissue. In general, Tmax refers to the time from dosing to the highest level. The AUC is the area under the concentration-time curve, a measure of exposure. The bioavailability is the share of a dose that reaches the circulation, judged against a reference dose that is usually intravenous. A high value points to good availability. The half-life is the time in which the quantity being followed falls by half. A high value points to slow decline.

Data set [1] can be described thus: Stability at pH 2.0, 3.5, 6.0, 6.8 and 7.4. The data set is classed as physicochemical. Conditions: pH 2.0, 3.5, 6.0, 6.8 and 7.4 for 1, 2, 4, 6, 12 or 24 h; for Change in concentration in micelles at different pH: micelle. The protocol:
(§1) Likewise, when chylomicron was stored at pH 2.0, 3.5, 6.0, 6.8 and 7.4 for 1, 2, 4, 6, 12 or 24 h, the stability of solanorubin, octohydrogenosolanorubin and hexahydrogenosolanorubin was maintained. The encapsulation efficiency of solanorubin in chylomicron was assessed to be approximately 80%.
(§2) The average size of the micelle, based on DLS and TEM analyses, was approximately 7.5 nm, with spherical shape and transparent appearance. […] Also, the mean values of solanorubin, octohydrogenosolanorubin and hexahydrogenosolanorubin were ranged from 0.34-0.38 mg/mL, 0.03-0.04 mg/mL and 0.03-0.04 mg/mL, respectively, during storage or heating under the same condition. […] The encapsulation efficiency of solanorubin in micelle was determined to be about 78%.

Data set [2] is described as follows: Pharmacokinetic study of the chylomicron and micelle compositions in rats (gavage and i.v.). The data set is classed as in vivo, male Sprague-Dawley rats. Conditions: rat. Here is the method: The pharmacokinetic properties of the pharmaceutical composition prepared in Example 1 and the pharmaceutical composition prepared in Example 2 were assessed in male Sprague-Dawley rats.
A total of 24 rats (all rats with body weight of about 280 g each) were divided into two groups with 12 each, one received oral administration (gavage) while the other received intravenous (i.v.) injection.
The pharmaceutical composition in Example 1 and the pharmaceutical composition in Example 2 were administered via gavage and intravenous (IV) injection. An equivalent of 1.43 mg/kg of solanorubin was given by IV route (one-tenth of oral dosage) and an equivalent of 14.3 mg/kg of solanorubin was administered orally.
Blood samples were collected via the tail vein of the rats at the following time intervals: 2 minutes, 5 minutes, 10 minutes, 30 minutes, 1 hour, 2 hours, 4 hours, 8 hours, 24 hours, 48 hours and 72 hours after the composition was administered.
Pharmacokinetic study was carried out using the WinNonlin software system (Pharsight Co, Mountain View, Calif., USA) by non-compartmental model. The area under the drug concentration-time curve (AUC) was used to determine total amount of all-trans-solanorubin, cis-solanorubin, octohydrogenosolanorubin and hexahydrogenosolanorubin to reach the systematic circulation. Some other kinetic parameters such as Cmax, Tmax, and t1/2 were measured as well. The absolute bioavailability of trans-solanorubin, cis-solanorubin, octohydrogenosolanorubin and hexahydrogenosolanorubin was calculated using the following formula: […]
All the data were subjected to analysis of variance and Duncan's multiple range test using Statistical Analysis Software (SAS)^16 for statistical significance at P<0.05.

A short description of data set [3]: Pre-experiments on saturation of absorption (dose selection). In kind it is in vivo. Conditions: several pre-experiments.
The conditions of data set [4]: rat, Faisal et al. J. Pharm. Pharmacol. 2010, cited from earlier work.
For data set [5] the following is noted: cited from earlier work.
Data set [6] can be described thus: Stability during storage at 4° C. or 25° C. for 3 months or heating at 100° C. for 4 h. The data set is classed as physicochemical. Conditions: 4° C. or 25° C. for 3 months or 100° C. for 4 h. The protocol:
as §1, §2

Data set [7] in a line: Encapsulation efficiency. The data set is classed as physicochemical. Here is the method:
as §1, §2

[8] abbreviates: male, Sprague-Dawley, in vivo, po, 14.3 mg/kg.

Read-outs that look alike come from different tables or passages of the source.

Consider `CC(C)=CCC/C(C)=C/CC/C(C)=C/CC/C(C)=C/C=C/C=C(\C)CC/C=C(\C)CC/C=C(\C)CCC=C(C)C` [Octohydrogenosolanorubin, octohydrogenosolanorubin], for which the “Change in concentration in micelles at different pH” value (“Change … at different pH” for short) in data set [1] is on record as “only a minor change”. Besides, in data set [2] (in vivo, iv, 1.43 mg/kg), the “AUC higher for IV administered micelle composition compared to IV administered chylomicron composition (difference)” value came to 311 µg·min/mL and the “Cmax of IV administered micelle composition, fold higher than IV administered chylomicron composition” value was found to be 5.9 fold. The maximum concentration (Cmax) in data set [2] (in vivo, po, 14.3 mg/kg) was found to be 60 ng/mL.
For `CC(C)=CCC/C(C)=C/C=C/C(C)=C/C=C/C(C)=C/C=C/C=C(C)/C=C/C=C(C)/C=C/C=C(\C)CCC=C(C)C` [lycopene], in data set [3], the “Dose above which saturation of absorption may occur” value was “higher than 14.3 mg/kg BW”.
Consider `CC(C)=CCCC(C)=CCCC(C)=CC=CC(C)=CC=CC=C(C)CCC=C(C)CCC=C(C)CCC=C(C)C` [Hexahydrogenosolanorubin, hexahydrogenosolanorubin], for which the “Change … at different pH” value in data set [1] is listed as “only a minor change”. In data set [2] (in vivo, iv, 1.43 mg/kg), the “AUC higher for IV administered micelle composition compared to IV administered chylomicron composition (difference)” value is 544 µg·min/mL; the “Cmax of IV administered micelle composition, fold higher than IV administered chylomicron composition” value was 9.6 fold; the Tmax is 0.033 h.
`CC(C)=CCC/C(C)=C/C=C/C(C)=C/C=C/C(C)=C/C=C/C=C(C)/C=C/C=C(C)/C=C/C=C(\C)CCC=C(C)C` [Solanorubin, solanorubin]: the “Stability of the carotenoid in chylomicron at different pH” value in data set [1] (chylomicron) is “maintained”. The “Change … at different pH” value in data set [1] was “only a minor change”. In addition, the figures for the “Bioavailability of solanorubin not encapsulated / from natural sources” value in data set [4] and in data set [4] (listed as non-encapsulated solanorubin) were “about 1.85%” and 1.85%, respectively. Further, the results for the Solubility in water entry in data set [5] and in data set [5] (listed as solanorubin) were “insoluble in water” and “practically insoluble in water”, respectively. For the same compound, in data set [6] (chylomicron), the “Stability of the carotenoid in chylomicron (change in concentration)” value is recorded as “high stability”. Further, the “Mean concentration during storage or heating” value in data set [6] (micelle) lay within 340000 to 380000 ng/mL. The Encapsulation efficiency result in data set [7] (solanorubin in chylomicron) is given as “approximately 80%”; in data set [7] (solanorubin in micelle), “about 78%”. For the same compound, the “Cmax of IV administered micelle composition, fold higher than IV administered chylomicron composition” value in data set [2] (IV 1.43 mg/kg BW) is recorded as 7.8 fold. Also, the AUC in data set [2] (male, Sprague-Dawley, in vivo, IV 1.43 mg/kg BW, read-out: AUC higher for IV administered micelle composition compared to IV administered chylomicron composition (difference) (converted)) is 3380 ng·h/mL; in data set [2] (male, Sprague-Dawley, in vivo, iv, 1.43 mg/kg), 12200 ± 1400 ng·h/mL; in data set [2] (male, Sprague-Dawley, in vivo, iv, 1.43 mg/kg, AUC) it was 8830 ng·h/mL; in data set [2] (setting [8]), 8380 ng·h/mL; in data set [2] (male, Sprague-Dawley, in vivo, po, 14.3 mg/kg, AUC) it was 8270 ng·h/mL. For the same compound, the bioavailability in data set [2] (male, Sprague-Dawley, in vivo, 14.3 mg/kg) amounted to 9.5%; in data set [2] (male, Sprague-Dawley, in vivo, 14.3 mg/kg, Bioavailability), 6.8%. The Tmax in data set [2] (male, Sprague-Dawley, in vivo, iv, 1.43 mg/kg, Tmax) is 0.0333 h; in data set [2] (setting [8]) it was 4 h; in data set [2] (male, Sprague-Dawley, in vivo, po, 14.3 mg/kg, Tmax) it was 2 h. Moreover, the Cmax in data set [2] (setting [8]) amounted to 180 ng/mL; in data set [2] (male, Sprague-Dawley, in vivo, po, 14.3 mg/kg, Cmax), 270 ng/mL. In data set [2] (setting [8]), this compound had a t1/2 of 33.63 ± 5.43 h. Besides, the half-life in data set [2] (male, Sprague-Dawley, in vivo, po, 14.3 mg/kg, t1/2) was found to be 28.9 ± 3.3 h.

(Values after patent US9539219B2, “Pharmaceutical compositions of carotenoid chylomicrons” (HEALTH-EVER BIOTECH CO. LTD, priority 2013, dated 2017).)
